Laboratory results published in patent US10488417B2, “Compounds for use as imaging agents” (United Arab Emirates University, priority 2014, dated 2019).

How the values were obtained:
[1] = system: BE(2)-M17 human neuroblastoma cells; test: α-synuclein-induced cytotoxicity, MTT cell viability; type: cell-based
Protocol: BE(2)-M17 human neuroblastoma cells were routinely cultured in Dulbecco's MEM/Nutrient Mix F-12 (1:1) (Gibco BRL, Rockville, Md.) containing 15% fetal bovine serum and 1% penicillin-streptomycin (P/S; 100 U/ml penicillin, […]). The cells were maintained at 37° C. in a humidified incubator with 5% CO2/95% air.
BE(2)-M17 cells suspended in DMEM medium were plated at a density of 15,000 cells (100 μL/well) in a 96-well plate. After 24 hours, the medium was replaced with 200 μL of OPTI-MEM (Gibco-USA) serum-free medium containing aged α-synuclein solutions with or without the compounds. Aged α-synuclein and compound-containing solutions were diluted in OPTI-MEM to obtain the desired concentration. Cells were then incubated at 37° C. in 5% CO2 for 48 hours. A total of 20 μL of MTT (3-(4,5-dimethylthiazol-2-yl)-2,5-diphenyltetrazolium bromide) (Sigma-Aldrich, USA) (6 mg/ml) in PBS was dispensed into each well, and the plate was incubated at 37° C. for 4.5 hours. The MTT-containing medium was carefully removed, and 100 μL of lysis buffer (15% SDS, 50% N,N-dimethylformamide, pH 4.7) was added to each well. The lysis buffer was incubated overnight at 37° C. before the absorbance values at 590 nm were determined by a microplate reader (Perkin Elmer).
BE(2)-M17 human neuroblastoma cells were treated with aged α-synuclein solutions at three different concentrations, 0.5 μM, 1 μM and 5 μM, either alone or in the presence of Gn Rb1, salvianolic acid B or dihydromyricetin.
The viability of cells treated with α-synuclein aged in the presence or absence of the Gn Rb1, salvianolic acid B or dihydromyricetin was determined by the MTT assay. Prior to the experiments, the effect of the Gn Rb1, salvianolic acid B and dihydromyricetin alone on cell viability was assessed (data not shown), employing the same non-toxic Gn Rb1, salvianolic acid B and dihydromyricetin concentrations that were later employed for the experiments with aged α-synuclein.

α-synuclein = target: T1, α-synuclein (Homo sapiens, UniProt P37840); test: Seeding polymerization assay of α-synuclein monomers (Th-T, TEM); type: biochemical; conditions: for inhibition of the seeding process / inhibition at 50 µM: 6 hours, 100 μM monomeric α-synuclein, 2 μM seeds; for inhibition at 50 µM: read-out: inhibition of the seeding process
T1 construct: GST (N, cleaved yes); made in house; host or cells: E. coli BL21
Protocol: The aggregation of monomeric α-synuclein with or without seeding was performed as described elsewhere. The seeds were prepared by fragmenting the mature α-synuclein fibrils by sonication to obtain short fibrils, which were employed as ‘seeds’. Briefly, monomeric α-synuclein at a concentration of 100 μM was seeded with 2 μM of seeds and incubated in the presence or absence of the compounds (10 μM or 50 μM) at 37° C. for 6 hours with continuous shaking. The fibrillization was monitored by Th-T binding assay as described above.
To assess the effect of salvianolic acid B, dihydromyricetin and Gn Rb1 on the seeding of α-synuclein aggregation, the compounds were added at concentrations of 10 or 50 μM to 100 μM monomeric α-synuclein containing seeds at a final concentration of 2 μM. The mixture was then incubated with continuous mixing at 37° C. for 6 hours.

[2] = target: T2, preformed α-synuclein fibrils (Homo sapiens, UniProt P37840); test: α-synuclein disaggregation assay on preformed fibrils (Th-T); type: biochemical; conditions: 25 μM preformed fibrils; for effect on preformed α-synuclein fibrils (Th-T counts): ratios 6:1, 4:1, 2:1, 48 hours, 37° C.
T2 construct: GST (N, cleaved yes); made in house; host or cells: E. coli BL21
Protocol: α-Synuclein solution in PBS (pH 7.4) was aggregated at a concentration of 25 μM as indicated above. The resulting aggregated α-synuclein was incubated either alone or with Gn Rb1 or dihydromyricetin at various molar ratios (compound: α-synuclein molar ratios of 6:1, 4:1 and 2:1). It should be noted that for the purpose of the experiment, the concentration of α-synuclein taken into account was the concentration of fresh α-synuclein. The samples were incubated at 37° C. for 48 hours on a thermomixer with continuous shaking at 800 rpm. Samples were collected at regular time points, and Th-T fluorescence was measured immediately.
Due to their high efficiency to inhibit α-synuclein fibrillation, Gn Rb1 and dihydromyricetin were assessed for their effectiveness on reversing fibrillation. 25 μM of preformed α-synuclein fibrils were incubated at 37° C. in the presence of Gn Rb1 or dihydromyricetin at varying molar ratios (compound: α-synuclein of 6:1, 4:1 and 2:1) for a period of 48 hours. By measuring the Th-T fluorescence counts (FIGS. 7A-7B), the fibril content was estimated at different time points.

α-synuclein fibrils = target: T3, α-synuclein fibrils (Homo sapiens, UniProt P37840); test: Congo red binding assay of aged α-synuclein; type: biochemical; conditions: all tested concentrations; fibril control shifts from 490 to 508 nm
T3 construct: GST (N, cleaved yes); made in house; host or cells: E. coli BL21
Protocol: CR is a dye with high affinity for amyloid fibrils. Congo red (20 μM) was prepared in PBS (pH 7.4) and filtered through a 0.45 μm filter. Samples of α-synuclein (5 μM), aged alone or with the compounds at different molar ratios, were mixed with Congo red (final concentration 5 μM), and the reaction samples were thoroughly mixed. The UV absorbance spectrum was recorded between 400 and 600 nm in a spectrophotometer (DU-800, Beckman-Coulter) using 10-mm quartz cuvettes (HellmaAnalytics-Germany). Congo red alone was used as blank.

monomeric α-synuclein = target: T4, monomeric α-synuclein (Homo sapiens, UniProt P37840); test: NMR titration into monomeric α-synuclein; type: binding; conditions: stoichiometries of up to 6:1 compound: α-synuclein, 100 μM α-synuclein
T4 construct: made in house
Protocol: For NMR studies, recombinant ^15N-labeled α-synuclein was expressed and purified as previously described, resuspended in PBS buffer at pH 6.6. Two-dimensional ^1H-^15N HQSC spectra were acquired for α-synuclein at 100 μM concentration in the absence of Gn Rb1 and in the presence of increasing Gn Rb1: α-synuclein stoichiometries of 1:1, 4:1 and 6:1. Data were collected on a Bruker 900 MHz spectrometer equipped with a cold probe.

[3] = 5 μM aged α-synuclein, all concentrations of compound, 48 hours, MTT

| inhibition of the seeding process (α-synuclein; compound 10 μM) | inhibition at 50 µM (α-synuclein; compound 50 μM) | SMILES | cells survived ([1]; α-synuclein aged with compound at molar ratios of 4:1 and 2:1, MTT) | improvement of cell viability ([1]; highest concentration, molar ratio of 4:1, MTT) | effect on preformed α-synuclein fibrils (Th-T counts) [2] | absorption maximum of Congo red bound to α-synuclein samples (α-synuclein fibrils) | improvement of viability of the cells ([1]; 1 μM aged α-synuclein, all used concentrations of compound, MTT) | cells surviving [1, 3] | increase in viability of the cells [1, 3] | Th-T counts as fraction of the Th-T counts of the control ([2]; after 4 hours of incubation, ratios 6:1, 4:1, 2:1) | TEM appearance of seeded α-synuclein with compound (α-synuclein; after 6 h of incubation, compound 50 μM) | inhibition of the seeding process (α-synuclein; compound 50 μM) | interaction with monomeric α-synuclein (two-dimensional NMR) (monomeric α-synuclein) |
| --- | --- | --- | --- | --- | --- | --- | --- | --- | --- | --- | --- | --- | --- |
| to a smaller extent | ~90% | O=C(/C=C/c1ccc(O)c2c1[C@H](C(=O)O[C@H](Cc1ccc(O)c(O)c1)C(=O)O)[C@@H](c1ccc(O)c(O)c1)O2)O[C@H](Cc1ccc(O)c(O)c1)C(=O)O [salvianolic acid B] | approximately 95% | – | – | – | – | – | – | – | – | – | – |
| showed an inhibitory effect | ~90% | O=C1c2c(O)cc(O)cc2O[C@H](c2cc(O)c(O)c(O)c2)[C@H]1O [dihydromyricetin] | – | approximately 10% | disaggregated preformed α-synuclein fibrils in a dose-dependent fashion | – | – | – | – | – | – | – | – |

| SMILES | inhibition of the seeding process (α-synuclein; compound 10 μM) | inhibition at 50 µM (α-synuclein; compound 50 μM) | cells survived ([1]; α-synuclein aged with compound at molar ratios of 4:1 and 2:1, MTT) | improvement of cell viability ([1]; highest concentration, molar ratio of 4:1, MTT) | effect on preformed α-synuclein fibrils (Th-T counts) [2] | absorption maximum of Congo red bound to α-synuclein samples (α-synuclein fibrils) | improvement of viability of the cells ([1]; 1 μM aged α-synuclein, all used concentrations of compound, MTT) | cells surviving [1, 3] | increase in viability of the cells [1, 3] | Th-T counts as fraction of the Th-T counts of the control ([2]; after 4 hours of incubation, ratios 6:1, 4:1, 2:1) | TEM appearance of seeded α-synuclein with compound (α-synuclein; after 6 h of incubation, compound 50 μM) | inhibition of the seeding process (α-synuclein; compound 50 μM) | interaction with monomeric α-synuclein (two-dimensional NMR) (monomeric α-synuclein) |
| --- | --- | --- | --- | --- | --- | --- | --- | --- | --- | --- | --- | --- | --- |
| CC(C)=CCC[C@](C)(O[C@@H]1O[C@H](CO[C@@H]2O[C@H](CO)[C@@H](O)[C@H](O)[C@H]2O)[C@@H](O)[C@H](O)[C@H]1O)[C@H]1CC[C@]2(C)[C@@H]1[C@H](O)C[C@@H]1[C@@]3(C)CC[C@H](O[C@@H]4O[C@H](CO)[C@@H](O)[C@H](O)[C@H]4O[C@@H]4O[C@H](CO)[C@@H](O)[C@H](O)[C@H]4O)C(C)(C)[C@@H]3CC[C@]12C [Gn Rb1, ginsenoside Rb1] | approximately 60% | – | – | – | disaggregated in a dose-dependent fashion | ≤ 495 nm | approximately 30% | approximately 80% | approximately 30% | ⅕ | mostly globular forms of α-synuclein | approximately 90% | does not interact significantly with monomeric α-synuclein |
